Measurements published in patent publication US10407422B2, “Triazolopyridine inhibitors of myeloperoxidase” (priority 2015, dated 2019).

Columns and labels:
[1] = molecular target: T1, myeloperoxidase (MPO) (Homo sapiens (Human), UniProt P05164); assay: MPO peroxidation assay (Amplex Red assay); format: biochemical; details: potency range class
Summary of the method: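 IC50 values come from a four-parameter fit of rates taken from the linear 180-540 s portion of a 15 min kinetic read of resorufin (Ex 535/Em 590 nm). Amplex Red (200 μM) plus 10 mM H2O2 was added after a 10 min room-temperature preincubation of inhibitor with 200 pM MPO and 40 nM H2O2 in 100 mM KPi, pH 7.4.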

[2] = molecular target: T1, myeloperoxidase (MPO); assay: MPO chlorination assay (APF assay); format: biochemical; details: potency range class
Summary of the method: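 Chlorinating activity followed by APF cleavage to fluorescein (485/535 nm, 3 min kinetic read) after adding APF and 10 μM H2O2. Beforehand, 200 pM enzyme, compound and 120 mM NaCl sat 10 min at room temperature in 100 mM KPi, pH 7.4. Initial-rate slopes gave % inhibition; IC50 by Hill-slope fit.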

T1 sequence (P05164 49-745): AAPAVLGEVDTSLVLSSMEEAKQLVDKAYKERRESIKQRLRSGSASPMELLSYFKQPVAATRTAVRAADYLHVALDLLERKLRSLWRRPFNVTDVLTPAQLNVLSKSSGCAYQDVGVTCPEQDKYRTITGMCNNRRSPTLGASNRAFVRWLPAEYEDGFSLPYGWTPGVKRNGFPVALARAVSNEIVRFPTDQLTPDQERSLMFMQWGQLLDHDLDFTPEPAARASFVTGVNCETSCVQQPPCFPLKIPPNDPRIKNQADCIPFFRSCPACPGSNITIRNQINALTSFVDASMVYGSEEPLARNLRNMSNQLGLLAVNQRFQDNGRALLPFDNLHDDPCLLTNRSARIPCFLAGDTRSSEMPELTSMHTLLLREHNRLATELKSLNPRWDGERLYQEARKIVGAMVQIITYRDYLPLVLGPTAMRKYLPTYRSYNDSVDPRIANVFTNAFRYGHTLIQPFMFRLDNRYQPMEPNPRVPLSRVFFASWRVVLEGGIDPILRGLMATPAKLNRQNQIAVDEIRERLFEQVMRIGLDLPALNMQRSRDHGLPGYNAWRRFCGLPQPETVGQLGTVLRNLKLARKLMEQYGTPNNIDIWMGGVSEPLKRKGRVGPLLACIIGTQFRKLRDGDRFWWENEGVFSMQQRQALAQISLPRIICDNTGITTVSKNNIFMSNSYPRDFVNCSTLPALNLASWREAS

IC50 [1] [nM]	IC50 [2] [nM]	Structure (SMILES)
1 to 100	101 to 999	COC(=O)CNCc1cccc(Oc2cccc(Cn3cc(Cc4cc(N)nc5[nH]nnc45)cn3)c2)c1 [Example 232, Methyl 2-({[3-(3-{[4-({5-amino-3H-[1,2,3]triazolo[4,5-b]pyridin-7-yl}methyl)-1H-pyrazol-1-yl]methyl}phenoxy)phenyl]methyl}amino)acetate]
1 to 100	1 to 100	Nc1cc(Cc2cnn(Cc3ccc4c(c3)CCC[C@H]4N)c2)c2nn[nH]c2n1 [Example 269, 7-[(1-{[(5R)-5-Amino-5,6,7,8-tetrahydronaphthalen-2-yl]methyl}-1H-pyrazol-4-yl)methyl]-3H-[1,2,3]triazolo[4,5-b]pyridin-5-amine]
1 to 100	1 to 100	Nc1cc(Cc2cnn(Cc3cccc(-c4cccnc4)c3)c2)c2nn[nH]c2n1 [Example 124, 7-((1-(3-(Pyridin-3-yl)benzyl)-1H-pyrazol-4-yl)methyl)-3H-[1,2,3]triazolo[4,5-b]pyridin-5-amine]
1 to 100	1 to 100	Nc1cc(Cc2cnn(Cc3cccc(-c4ccccc4)n3)c2)c2nn[nH]c2n1 [Example 123, 7-((1-((6-Phenylpyridin-2-yl)methyl)-1H-pyrazol-4-yl)methyl)-3H-[1,2,3]triazolo[4,5-b]pyridin-5-amine]
1 to 100	101 to 999	Nc1cc(Cc2cnn(Cc3ccc(C(=O)N4CCOCC4)cc3)c2)c2nn[nH]c2n1 [Example 96, 7-[(1-{[4-(Morpholine-4-carbonyl)phenyl]methyl}-1H-pyrazol-4-yl)methyl]-3H-[1,2,3]triazolo[4,5-b]pyridin-5-amine]
1 to 100	101 to 999	Nc1cc(Cc2cnn(Cc3cccc([C@H]4CNC(=O)C4)c3)c2)c2nn[nH]c2n1 [Example 188, (S)-4-(3-((4-((5-Amino-3H-[1,2,3]triazolo[4,5-b]pyridin-7-yl)methyl)-1H-pyrazol-1-yl)methyl)phenyl)pyrrolidin-2-one]
1 to 100	1 to 100	Nc1cc(Cc2cnn(CCc3ccccc3)c2)c2nn[nH]c2n1 [Example 40, 7-((1-Phenethyl-1H-pyrazol-4-yl)methyl)-3H-[1,2,3]triazolo[4,5-b]pyridin-5-amine]
1 to 100	1 to 100	CN(C)Cc1cccc(Cn2cc(Cc3cc(N)nc4[nH]nnc34)cn2)c1 [Example 255, 7-{[1-({3-[(Dimethylamino)methyl]phenyl}methyl)-1H-pyrazol-4-yl]methyl}-3H-[1,2,3]triazolo[4,5-b]pyridin-5-amine]
1 to 100	1 to 100	Nc1cc(Cc2cnn(Cc3cccc(Br)c3)c2)c2nn[nH]c2n1 [Example 101, 7-((1-(3-Bromobenzyl)-1H-pyrazol-4-yl)methyl)-3H-[1,2,3]triazolo[4,5-b]pyridin-5-amine]
1 to 100	1 to 100	Nc1cc(Cc2cnn(-c3cccc(Cl)c3)c2)c2nn[nH]c2n1 [Example 7, 7-((1-(3-Chlorophenyl)-1H-pyrazol-4-yl)methyl)-3H-[1,2,3]triazolo[4,5-b]pyridin-5-amine]
1 to 100	1 to 100	Nc1cc(Cc2cnn(Cc3ccc(Cl)cc3)c2)c2nn[nH]c2n1 [Example 45, 7-((1-(4-Chlorobenzyl)-1H-pyrazol-4-yl)methyl)-3H-[1,2,3]triazolo[4,5-b]pyridin-5-amine]
1 to 100	101 to 999	Nc1cc(Cc2cnn(Cc3cccc(C4(O)CCNCC4F)c3)c2)c2nn[nH]c2n1 (stereo not shown) [Example 213, 4-(3-{[4-({5-Amino-3H-[1,2,3]triazolo[4,5-b]pyridin-7-yl}methyl)-1H-pyrazol-1-yl]methyl}phenyl)-3-fluoropiperidin-4-ol]
1 to 100	1 to 100	Nc1cc(Cc2cnn(Cc3cc([C@@H]4CC(=O)NC4CO)cc(C(F)(F)F)c3)c2)c2nn[nH]c2n1 (stereo partly drawn) [Example 201, (4S)-4-(3-{[4-({5-Amino-3H-[1,2,3]triazolo[4,5-b]pyridin-7-yl}methyl)-1H-pyrazol-1-yl]methyl}-5-(trifluoromethyl)phenyl)-5-(hydroxymethyl)pyrrolidin-2-one]
1 to 100	1 to 100	CC(C)C1C[C@@H](c2cccc(Cn3cc(Cc4cc(N)nc5[nH]nnc45)cn3)c2)CN1 (stereo partly drawn) [Example 205, 7-{[1-({3-[(3S)-5-(propan-2-yl)pyrrolidin-3-yl]phenyl}methyl)-1H-pyrazol-4-yl]methyl}-3H-[1,2,3]triazolo[4,5-b]pyridin-5-amine]
101 to 999	1 to 100	Nc1cc(Cc2cnn(Cc3cccc(N4CC5C(N)C5C4)c3)c2)c2nn[nH]c2n1 [Example 229, (1R,5S,6S)-3-(3-{[4-({5-Amino-3H-[1,2,3]triazolo[4,5-b]pyridin-7-yl}methyl)-1H-pyrazol-1-yl]methyl}phenyl)-3-azabicyclo[3.1.0]hexan-6-amine]
101 to 999	101 to 999	CC(C)(C)OC(=O)N1CCc2ccc(Cn3cc(Cc4cc(N)nc5[nH]nnc45)cn3)cc2C1 [Example 148, tert-Butyl 7-{[4-({5-amino-3H-[1,2,3]triazolo[4,5-b]pyridin-7-yl}methyl)-1H-pyrazol-1-yl]methyl}-1,2,3,4-tetrahydroisoquinoline-2-carboxylate]
101 to 999	1000 to 10000	CC(C)(C)OC(=O)N1CCc2cc(Cn3cc(Cc4cc(N)nc5[nH]nnc45)cn3)ccc2C1 [Example 129, tert-Butyl 6-((4-((5-amino-3H-[1,2,3]triazolo[4,5-b]pyridin-7-yl)methyl)-1H-pyrazol-1-yl)methyl)-3,4-dihydroisoquinoline-2(1H)-carboxylate]
1 to 100	1 to 100	Nc1cc(Cc2cnn(Cc3cccc(O[C@@H]4CCNC4)c3)c2)c2nn[nH]c2n1 [Example 239, 7-{[1-({3-[(3R)-Pyrrolidin-3-yloxy]phenyl}methyl)-1H-pyrazol-4-yl]methyl}-3H-[1,2,3]triazolo[4,5-b]pyridin-5-amine]
1 to 100	101 to 999	Nc1cc(Cc2cnn(Cc3cn(-c4ccccc4)nn3)c2)c2nn[nH]c2n1 [Example 116, 7-((1-((1-Phenyl-1H-1,2,3-triazol-4-yl)methyl)-1H-pyrazol-4-yl)methyl)-3H-[1,2,3]triazolo[4,5-b]pyridin-5-amine]
1 to 100	101 to 999	Nc1cc(Cc2cnn(Cc3ccc4ncsc4c3)c2)c2nn[nH]c2n1 [Example 180, 7-{[1-(1,3-Benzothiazol-6-ylmethyl)-1H-pyrazol-4-yl]methyl}-3H-[1,2,3]triazolo[4,5-b]pyridin-5-amine]
1 to 100	101 to 999	Nc1cccc(Cn2cc(Cc3cc(N)nc4[nH]nnc34)cn2)c1 [Example 126, 7-((1-(3-Aminobenzyl)-1H-pyrazol-4-yl)methyl)-3H-[1,2,3]triazolo[4,5-b]pyridin-5-amine]
1 to 100	101 to 999	Nc1cc(Cc2cnn(Cc3ccc(Cn4cccn4)cc3)c2)c2nn[nH]c2n1 [Example 109, 7-((1-(4-((1H-Pyrazol-1-yl)methyl)benzyl)-1H-pyrazol-4-yl)methyl)-3H-[1,2,3]triazolo[4,5-b]pyridin-5-amine]
1 to 100	101 to 999	Nc1cc(Cc2cnn(Cc3ccc(C(=O)NCc4ccn[nH]4)cc3)c2)c2nn[nH]c2n1 [Example 78, 4-{[4-({5-Amino-3H-[1,2,3]triazolo[4,5-b]pyridin-7-yl}methyl)-1H-pyrazol-1-yl]methyl}-N-(1H-pyrazol-5-ylmethyl)benzamide]
